Measured values from patent publication US10683278B2 (JINAN UNIVERSITY, priority 2015, dated 2020).
“And” between values parts separate entries of the source, which are not always exact repeats. Equal values may be shown once.

Assays:
AXL kinase = molecular target: T1, AXL kinase (Homo sapiens, UniProt P30530); experiment: IC50 test on AXL kinase (Z′-LYTE FRET kinase activity detection); type: biochemical; settings: for IC50: Z′-LYTE FRET peptide assay, 1 h reaction; for inhibitory activity on AXL kinase: competitive experiment with ATP, in words
T1 construct: purchased Invitrogen PV4803
T1 sequence (P30530 26-894): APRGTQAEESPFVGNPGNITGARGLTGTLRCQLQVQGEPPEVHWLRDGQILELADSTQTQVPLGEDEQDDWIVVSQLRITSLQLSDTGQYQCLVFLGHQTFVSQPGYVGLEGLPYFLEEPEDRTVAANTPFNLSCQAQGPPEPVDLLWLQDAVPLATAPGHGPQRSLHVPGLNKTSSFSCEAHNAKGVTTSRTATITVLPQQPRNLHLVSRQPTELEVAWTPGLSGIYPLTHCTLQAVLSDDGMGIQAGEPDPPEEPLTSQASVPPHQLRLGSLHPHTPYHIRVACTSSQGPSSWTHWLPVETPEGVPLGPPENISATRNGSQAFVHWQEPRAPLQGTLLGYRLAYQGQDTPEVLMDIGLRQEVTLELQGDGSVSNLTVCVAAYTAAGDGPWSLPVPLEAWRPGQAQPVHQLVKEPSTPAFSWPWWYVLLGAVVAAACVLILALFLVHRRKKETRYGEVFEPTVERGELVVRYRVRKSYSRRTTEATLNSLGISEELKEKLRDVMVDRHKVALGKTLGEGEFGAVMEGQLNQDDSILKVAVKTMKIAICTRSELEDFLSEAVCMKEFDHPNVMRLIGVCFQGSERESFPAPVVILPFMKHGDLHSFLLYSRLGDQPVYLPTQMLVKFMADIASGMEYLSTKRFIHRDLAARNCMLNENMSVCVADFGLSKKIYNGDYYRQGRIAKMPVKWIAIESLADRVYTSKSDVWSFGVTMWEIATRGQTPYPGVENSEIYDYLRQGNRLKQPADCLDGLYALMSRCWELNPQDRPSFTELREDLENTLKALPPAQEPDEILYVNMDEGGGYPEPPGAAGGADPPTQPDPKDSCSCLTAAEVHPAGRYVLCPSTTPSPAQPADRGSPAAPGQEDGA
From the text: Kinase activity detection: The activity of compounds on kinases was detected by a secondary reaction which used the Z′-LYTE™ technique (a detection using fluorescence, enzyme coupling, and based on differences in susceptibility of phosphorylated and non-phosphorylated polypeptides to proteolytic cleavage), followed the fluorescence resonance energy transfer (FRET) principle, and used Z′-LYTE™ FRET peptide substrates (Invitrogen, Z′-LYTE™ KINASE ASSAY KIT—TYR 2 PEPTIDE, PV3191). AXL kinase (invitrogen, PV4803) was diluted stepwise, FRET peptide was then added, followed by ATP, then by compounds at different concentrations, reacted for 1 h, site-specific proteases were then added to recognize and cleave non-phosphorylated FRET peptides, reacted for 1 h, and […] at 445 nm and 520 nm were detected using excitation wavelength of 400 nm.

[1] = molecular target: T2, FLT-3 kinase domain recombinant protein (Homo sapiens, UniProt P36888); experiment: Inhibition rate on FLT3 kinase (ELISA); type: biochemical; settings: two values per compound; for inhibition at 0.01 µM / inhibition at 0.1 µM / inhibition at 1 µM: read-out: Inhibition rate (%) against receptor tyrosine kinase FLT-3
T2 construct: 50 μL FLT-3 kinase domain recombinant protein diluted with reaction buffer to initiate the reaction
T2 sequence (P36888 610-943 limits assumed): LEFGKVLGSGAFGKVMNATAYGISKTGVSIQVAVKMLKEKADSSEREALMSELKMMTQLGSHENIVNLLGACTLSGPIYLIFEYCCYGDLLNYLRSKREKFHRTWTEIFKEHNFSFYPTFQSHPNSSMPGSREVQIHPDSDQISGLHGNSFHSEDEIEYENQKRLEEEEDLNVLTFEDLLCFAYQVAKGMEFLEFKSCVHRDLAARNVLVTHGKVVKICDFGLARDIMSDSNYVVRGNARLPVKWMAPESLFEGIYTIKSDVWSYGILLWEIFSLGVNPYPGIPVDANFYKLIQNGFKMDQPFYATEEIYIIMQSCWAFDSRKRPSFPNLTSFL
Experimental: Conventional enzyme-linked immunosorbent assay (ELISA) method is used, and the specific steps are as follows
12,000 g of compounds were centrifuged for 5 min, DMSO was added to make a 10^−2M stock solution, vortexed uniformly and sonicated for 10 min for standby application, and stored at −40° C. The compounds were diluted from the stock solution with DMSO to 100 times the concentration to be tested (concentration of DMSO in the system being 1%) during the test.
1. The enzyme reaction substrate Poly (Glu, Tyr) 4:1 was diluted to 20 μg/mL with potassium-free PBS (10 mM sodium phosphate buffer, 150 mM NaCl, pH 7.2-7.4), the ELISA plate was coated with same in 125 μL/well, and reacted at 37° C. for 12-16 hours, the liquid in wells was discarded, the plate was washed three times, for 5 minutes each time, with T-PBS (potassium-free PBS with 0.1% Tween-20, 200 μL/well), and the ELISA plate was dried in an oven at 37° C. for 1-2 hours.
2. To each well were added 49 μL of ATP solution diluted with reaction buffer (50 mM HEPES pH 7.4, 50 mM MgCl2, 0.5 mM MnCl2, 0.2 mM Na3VO4, 1 mM DTT), 1 μL of compounds to be tested, and 50 μL FLT-3 kinase domain recombinant protein diluted with reaction buffer to initiate the reaction (two ATP-free control wells are required for each experiment). Subject to a shaker (100 rpm) at 37° C. and reacted for 1 hour. The liquid in wells was discarded, and the plate was washed three times with T-PBS.
(§1) 3. Antibody PY99 diluent (the antibody was diluted in 1:500 with T-PBS which contains 5 mg/mL BSA) was added in 100 μL/well, subjected same to a shaker at 37° C. and reacted for 0.5 hour. The liquid in wells was discarded, and the plate was washed three times with T-PBS.
as §1, with “4. Horseradish peroxidase labeled goat anti-mouse secondary antibody” for “3. Antibody PY99”, “1:2000” for “1:500”, “mg/ml” for “mg/mL”
5. 2 mg/ml of OPD developing solution (diluted with 0.1 M citric acid-sodium citrate buffer which contains 0.03% H2O2 (pH=5.4)) was added in 100 μL/well, and reacted at 25° C. in the dark for 1-10 minutes.
6. 2 M H2SO4 was added in 50 μL/well to stop the reaction, and the reading from the wavelength-adjustable microwell plate ELIASA VERSAmax was performed with a wavelength of 490 nm.

| Compound | IC50 (AXL kinase) [nM] | Inhibition rate (%) against receptor tyrosine kinase FLT-3 ([1]; compound 10 nM, 0.01 µM) | inhibition at 0.01 µM ([1]; compound 10 nM) [%] | Inhibition rate (%) against receptor tyrosine kinase FLT-3 ([1]; compound 100 nM, 0.1 µM) | inhibition at 0.1 µM ([1]; compound 100 nM) [%] | Inhibition rate (%) against receptor tyrosine kinase FLT-3 ([1]; compound 1000 nM, 1 µM) | inhibition at 1 µM ([1]; compound 1000 nM) [%] | inhibitory activity on AXL kinase (AXL kinase) |
| --- | --- | --- | --- | --- | --- | --- | --- | --- |
| CCc1ccc2c(c1)c(=O)c(C(=O)Nc1ccc(Oc3ncnc4[nH]cc(-c5cnn(C)c5)c34)c(F)c1)c(C)n2C [GDL5000038, 6-ethyl-N-(3-fluoro-4-(5-(1-methyl-1H-pyrazol-4-yl)-7H-pyrrolo[2,3-d]pyrimidin-4-yloxy)phenyl)-1,2-dimethyl-4-oxo-1,4-dihydroquinoline-3-carboxamide] | 34 | 55.0% | 58.3 | 73.0% | 80.7 | 95.9% | 98.2 | – |
| Cc1c(C(=O)Nc2ccc(Oc3ncnc4[nH]cc(-c5ccccc5)c34)c(F)c2)c(=O)c2cc(C(C)C)ccc2n1C [TL50172, N-(3-fluoro-4-(5-phenyl-7H-pyrrolo[2,3-d]pyrimidin-4-yloxy)phenyl)-6-isopropyl-1,2-dimethyl-4-oxo-1,4-dihydroquinoline-3-carboxamide] | 26 | 54.2% | 59.4 | 72.9% | 62.6 | 84.6% | 81.8 | – |
| Cc1c(C(=O)Nc2ccc(Oc3ncnc4[nH]cc(-c5ccccc5)c34)c(F)c2)c(=O)c2cc(C(C)(C)C)ccc2n1C [TL4800062, 6-(tert-butyl)-N-(3-fluoro-4-((5-phenyl-7H-pyrrolo[2,3-d]pyrimidin-4-yl)oxy)phenyl)-1,2-dimethyl-4-oxo-1,4-dihydroquinoline-3-carboxamide] | 42 | 44.9% | 40.5 | 65.8% | 69.5 | 79.1% | 84 | – |
| 6-ethyl-N-(3-fluorophenyl-1H-pyrrolo[2,3-d]pyridin-4-yl)oxy)phenyl)-1,2-dimethyl-4-oxo-1,4-dihydroquinoline-3-carboxamide [TL4800172] | 29.8 | 63.7% and 55.0% | – | 74.9% and 67.8% | – | 85.5% and 72.0% | – | strong inhibitory activity |
| Cc1c(C(=O)Nc2ccc(Oc3ncnc4[nH]cc(-c5ccccc5)c34)c(F)c2)c(=O)c2cc(Br)ccc2n1C [TL50133, 6-bromo-N-(3-fluoro-4-((5-phenyl-7H-pyrrolo[2,3-d]pyrimidin-4-yl)oxy)phenyl)-1,2-dimethyl-4-oxo-1,4-dihydroquinoline-3-carboxamide] | 3120 | – | – | – | – | – | – | – |
| C=C(C)c1ccc2c(c1)c(=O)c(C(=O)Nc1ccc(Oc3ncnc4[nH]cc(-c5ccccc5)c34)c(F)c1)c(C)n2C [TL50167, N-(3-fluoro-4-(5-phenyl-7H-pyrrolo[2,3-d]pyrimidin-4-yloxy)phenyl)-1,2-dimethyl-4-oxo-6-(prop-1-en-2-yl)-1,4-dihydroquinoline-3-carboxamide] | 324 | – | – | – | – | – | – | – |
| Cc1ccc2c(c1)c(=O)c(C(=O)Nc1ccc(Oc3ncnc4c3c(-c3ccccc3)cn4C)c(F)c1)c(C)n2C [TL50134, N-(3-fluoro-4-(7-methyl-5-phenyl-7H-pyrrolo[2,3-d]pyrimidin-4-yloxy)phenyl)-1,2,6-trimethyl-4-oxo-1,4-dihydroquinoline-3-carboxamide] | > 10000 | – | – | – | – | – | – | – |

Further lines, results first:

| IC50 (AXL kinase) [nM] | Inhibition rate (%) against receptor tyrosine kinase FLT-3 ([1]; compound 10 nM, 0.01 µM) | inhibition at 0.01 µM ([1]; compound 10 nM) [%] | Inhibition rate (%) against receptor tyrosine kinase FLT-3 ([1]; compound 100 nM, 0.1 µM) | inhibition at 0.1 µM ([1]; compound 100 nM) [%] | Inhibition rate (%) against receptor tyrosine kinase FLT-3 ([1]; compound 1000 nM, 1 µM) | inhibition at 1 µM ([1]; compound 1000 nM) [%] | inhibitory activity on AXL kinase (AXL kinase) | Compound |
| --- | --- | --- | --- | --- | --- | --- | --- | --- |
| 26.5 | 62.8% | 63.8 | 56.6% | 69.8 | 68.5% | 72 | – | COc1cc2ncnc(Oc3ccc(NC(=O)c4cn5c6c(cc(C)cc6c4=O)CCC5)cc3F)c2cc1OC [TL4830032, N-(4-((6,7-dimethoxyquinazolin-4-yl)oxy)-3-fluorophenyl)-9-methyl-1-oxo-1,5,6,7-tetrahydropyrido[3,2,1-ij]quinoline-2-carboxamide] |
| 23 | 49.8% | 55.7 | 53.3% | 50.1 | 59.9% | 71.4 | strong inhibitory activity | CCc1ccc2c(c1)c(=O)c(C(=O)Nc1ccc(Oc3ncnc4[nH]cc(-c5ccccc5)c34)c(F)c1)c(CC)n2C [TL4830005, 2,6-diethyl-N-(3-fluoro-4-(5-phenyl-7H-pyrrolo[2,3-d]pyrimidin-4-yloxy)phenyl)-1-methyl-4-oxo-1,4-dihydroquinoline-3-carboxamide] |
| 110 | – | – | – | – | – | – | – | O=C(Nc1ccc(Oc2ncnc3[nH]cc(-c4ccccc4)c23)c(F)c1)c1cn(C2CC2)c2cc(N3CCNCC3)c(F)cc2c1=O [TL4800095, 1-cyclopropyl-6-fluoro-N-(3-fluoro-4-((5-phenyl-7H-pyrrolo[2,3-d]pyrimidin-4-yl)oxy)phenyl)-4-oxo-7-(piperazin-1-yl)-1,4-dihydroquinoline-3-carboxamide] |
| 61 | – | – | – | – | – | – | – | CCCc1ccc2c(c1)c(=O)c(C(=O)Nc1ccc(Oc3ncnc4[nH]cc(-c5ccccc5)c34)c(F)c1)c(C)n2C [TL4800116, N-(3-fluoro-4-((5-phenyl-7H-pyrrolo[2,3-d]pyrimidin-4-yl)oxy)phenyl)-1,2-dimethyl-4-oxo-6-propyl-1,4-dihydroquinoline-3-carboxamide] |
